Source: US20230114728A1 (Venatorx Pharmaceuticals, Inc., priority 2019, published 2023)
≈ marks a conversion by molar mass, not a printed value.

How the values were obtained:
Assay type in all cases: cell-based
E. coli AG100A = experiment: Broth microdilution MIC in CAMHB; details: Escherichia coli, read-out: Minimum Inhibitory Concentration, E. coli AG100A
Outline: (§1)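 CLSI microdilution; CAMHB; inoculum 2-8×10^5 CFU/mL from 3-5 h 37° C culture; 2-fold compound series; 16-20 h, 37° C; MIC = lowest well without visible growth.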

E. coli ATCC 25922 = experiment: Broth microdilution MIC in CAMHB; details: Escherichia coli, ATCC25922; E. coli ATCC 25922; MHB; read-out: Minimum Inhibitory Concentration, E. coli 25922
Outline: as §1

E. coli D22 = experiment: Broth microdilution MIC in CAMHB; details: Escherichia coli; E. coli D22 (hyper-permeable); MHB; read-out: Minimum Inhibitory Concentration, E. coli D22
Outline: as §1

[1] = test system: K. pneumoniae SI-117 producing VIM-1; experiment: Broth microdilution MIC in CAMHB; details: Klebsiella pneumoniae, read-out: Minimum Inhibitory Concentration, K. pneumoniae SI-117
Outline: as §1

P. aeruginosa ATCC 35151 = experiment: Broth microdilution MIC in CAMHB; details: Pseudomonas aeruginosa, ATCC35151; MHB; hyper-permeable strain; read-out: Minimum Inhibitory Concentration, P. aeruginosa ATCC 35151
Outline: as §1

[2] = test system: N. gonorrhoeae ATCC 49226; experiment: Liquid broth MIC in Fastidious broth; details: Neisseria gonorrhoeae, ATCC49226; N. gonorrhoeae strain ATCC 49226; Fastidious broth; read-out: Minimum Inhibitory Concentration, N. gonorrhoeae ATCC 49226
Outline: (§2)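 Colonies were swabbed from chocolate agar after 24 h growth and standardised by optical density at 600 nm. Compounds were serially diluted twofold in Fastidious broth, and bacteria added to give 5×10^5 CFU/mL. After about 24 h at 36 °C in 5% CO2, the lowest concentration allowing under 10% growth was taken as MIC.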

N. gonorrhoeae FA1090 = experiment: Liquid broth MIC in Fastidious broth; details: Neisseria gonorrhoeae; N. gonorrhoeae strain FA1090; Fastidious broth; read-out: Minimum Inhibitory Concentration, N. gonorrhoeae FA1090
Outline: as §2

N. gonorrhoeae H041 = experiment: Liquid broth MIC in Fastidious broth; details: Neisseria gonorrhoeae, H041, read-out: Minimum Inhibitory Concentration, N. gonorrhoeae H041
Outline: (§3)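 MIC = lowest concentration giving <10% growth relative to untreated wells, scored by eye after ~24 h at 36 °C, 5% CO2. Strains carry mosaic PBP2; inoculum 5×10^5 CFU/mL in Fastidious broth with 2-fold serial compound dilutions.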

N. gonorrhoeae WHO G = experiment: Liquid broth MIC in Fastidious broth; details: Neisseria gonorrhoeae; N. gonorrhoeae strain WHO G; Fastidious broth; read-out: Minimum Inhibitory Concentration, N. gonorrhoeae WHO G
Outline: as §2

N. gonorrhoeae WHO K = experiment: Liquid broth MIC in Fastidious broth; details: Neisseria gonorrhoeae, read-out: Minimum Inhibitory Concentration, N. gonorrhoeae WHO K
Outline: as §3

N. gonorrhoeae WHO L = experiment: Liquid broth MIC in Fastidious broth; details: Neisseria gonorrhoeae; N. gonorrhoeae strain WHO L; Fastidious broth; read-out: Minimum Inhibitory Concentration, N. gonorrhoeae WHO L
Outline: as §2

N. gonorrhoeae WHO Q = experiment: Liquid broth MIC in Fastidious broth; details: Neisseria gonorrhoeae, read-out: Minimum Inhibitory Concentration, N. gonorrhoeae WHO Q
Outline: as §3

N. gonorrhoeae WHO Z = experiment: Liquid broth MIC in Fastidious broth; details: Neisseria gonorrhoeae, read-out: Minimum Inhibitory Concentration, N. gonorrhoeae WHO Z
Outline: as §3

| Structure (SMILES) | MIC (E. coli AG100A) [µg/mL] | MIC (E. coli ATCC 25922) [µg/mL] | MIC (E. coli D22) [µg/mL] | MIC [1] [µg/mL] | MIC (P. aeruginosa ATCC 35151) [µg/mL] | MIC [2] [µg/mL] | MIC (N. gonorrhoeae FA1090) [µg/mL] | MIC (N. gonorrhoeae H041) [µg/mL] | MIC (N. gonorrhoeae WHO G) [µg/mL] | MIC (N. gonorrhoeae WHO K) [µg/mL] | MIC (N. gonorrhoeae WHO L) [µg/mL] | MIC (N. gonorrhoeae WHO Q) [µg/mL] | MIC (N. gonorrhoeae WHO Z) [µg/mL] |
| --- | --- | --- | --- | --- | --- | --- | --- | --- | --- | --- | --- | --- | --- |
| CCN1CCN(C(=O)NC(C(=O)N[C@H]2Cc3cccc(C(=O)O)c3OB2O)c2ccc(O)c(F)c2F)C(=O)C1=O (stereo partly shown) [Example 173] | 2 to 4 (≈ 3.57 to 7.14 µM) | 8 to 16 (≈ 14.3 to 28.6 µM) | 2 to 4 (≈ 3.57 to 7.14 µM) | 32 to 64 (≈ 57.1 to 114 µM) | 0.5 to 1 (≈ 0.892 to 1.78 µM) | 1 to 2 (≈ 1.78 to 3.57 µM) | < 0.125 | 16 to 32 (≈ 28.6 to 57.1 µM) | 1 to 2 (≈ 1.78 to 3.57 µM) | 16 to 32 (≈ 28.6 to 57.1 µM) | 16 to 32 (≈ 28.6 to 57.1 µM) | 16 to 32 (≈ 28.6 to 57.1 µM) | 4 to 8 (≈ 7.14 to 14.3 µM) |
| CCN1CCN(C(=O)NC(C(=O)N[C@H]2Cc3cccc(C(=O)O)c3OB2O)c2cc(F)c(O)c(Cl)c2)C(=O)C1=O (stereo partly drawn) [Example 164, (3R)-3-(2-(3-chloro-5-fluoro-4-hydroxyphenyl)-2-(4-ethyl-2,3-dioxopiperazine-1-carboxamido)acetamido)-2-hydroxy-3,4-dihydro-2H-benzo[e][1,2]oxaborinine-8-carboxylic acid] | 2 to 4 (≈ 3.47 to 6.94 µM) | 32 to 64 (≈ 55.5 to 111 µM) | 2 to 4 (≈ 3.47 to 6.94 µM) | > 128 | < 0.25 | 4 to 8 (≈ 6.94 to 13.9 µM) | 0.25 to 0.5 (≈ 0.433 to 0.867 µM) | 16 to 32 (≈ 27.7 to 55.5 µM) | 1 to 2 (≈ 1.73 to 3.47 µM) | 16 to 32 (≈ 27.7 to 55.5 µM) | 16 to 32 (≈ 27.7 to 55.5 µM) | 16 to 32 (≈ 27.7 to 55.5 µM) | 4 to 8 (≈ 6.94 to 13.9 µM) |
| NCCN1CCN(C(=O)N[C@@H](C(=O)N[C@H]2Cc3cccc(C(=O)O)c3OB2O)c2c(F)cc(O)cc2F)C(=O)C1=O (single isomer, unassigned) [Example 111] | 0.5 to 1 (≈ 0.869 to 1.74 µM) | 8 to 16 (≈ 13.9 to 27.8 µM) | 2 to 4 (≈ 3.48 to 6.95 µM) | 8 to 16 (≈ 13.9 to 27.8 µM) | 0.5 to 1 (≈ 0.869 to 1.74 µM) | 16 to 32 (≈ 27.8 to 55.6 µM) | 1 to 2 (≈ 1.74 to 3.48 µM) | > 64 | 4 to 8 (≈ 6.95 to 13.9 µM) | > 64 | > 64 | > 64 | > 64 |
| NCCN1CCN(C(=O)NC(C(=O)N[C@H]2Cc3cccc(C(=O)O)c3OB2O)c2c(F)cc(NS(N)(=O)=O)cc2F)C(=O)C1=O (stereo partly drawn) [Example 177, (3R)-3-(2-(4-(2-aminoethyl)-2,3-dioxopiperazine-1-carboxamido)-2-(2,6-difluoro-4-(sulfamoylamino)phenyl)acetamido)-2-hydroxy-3,4-dihydro-2H-benzo[e][1,2]oxaborinine-8-carboxylic acid] | 8 to 16 (≈ 12.2 to 24.5 µM) | > 128 | 32 to 64 (≈ 49 to 98 µM) | > 128 | 2 to 4 (≈ 3.06 to 6.12 µM) | > 64 | 4 to 8 (≈ 6.12 to 12.2 µM) | > 64 | 16 to 32 (≈ 24.5 to 49 µM) | > 64 | > 64 | > 64 | > 64 |
| NCCN1CCN(C(=O)N[C@@H](C(=O)N[C@H]2Cc3cccc(C(=O)O)c3OB2O)c2ccc(O)c(F)c2F)C(=O)C1=O (single isomer, unassigned) [Example 170] | 2 to 4 (≈ 3.48 to 6.95 µM) | 8 to 16 (≈ 13.9 to 27.8 µM) | 2 to 4 (≈ 3.48 to 6.95 µM) | 32 to 64 (≈ 55.6 to 111 µM) | < 0.25 | 4 to 8 (≈ 6.95 to 13.9 µM) | 0.25 to 0.5 (≈ 0.435 to 0.869 µM) | > 64 | 4 to 8 (≈ 6.95 to 13.9 µM) | > 64 | > 64 | > 64 | > 64 |
| NCCN1CCN(C(=O)N[C@H](C(=O)N[C@H]2Cc3ccc(F)c(C(=O)O)c3OB2O)c2c(F)cc(O)cc2F)C(=O)C1=O (single isomer, unassigned) [Example 128] | 32 to 64 (≈ 53.9 to 108 µM) | 32 to 64 (≈ 53.9 to 108 µM) | 8 to 16 (≈ 13.5 to 27 µM) | > 128 | 2 to 4 (≈ 3.37 to 6.74 µM) | > 64 | 16 to 32 (≈ 27 to 53.9 µM) | > 64 | > 64 | > 64 | > 64 | > 64 | > 64 |
| O=C(O)c1cccc2c1OB(O)[C@@H](NC(=O)C(NC(=O)N1CCNC1=O)c1c(F)cc(O)cc1F)C2 (stereo partly drawn) [Example 156, (3R)-3-(2-(2,6-difluoro-4-hydroxyphenyl)-2-(2-oxoimidazolidine-1-carboxamido)acetamido)-2-hydroxy-3,4-dihydro-2H-benzo[e][1,2]oxaborinine-8-carboxylic acid] | 2 to 4 (≈ 3.97 to 7.93 µM) | 32 to 64 (≈ 63.5 to 127 µM) | 8 to 16 (≈ 15.9 to 31.7 µM) | 32 to 64 (≈ 63.5 to 127 µM) | 0.5 to 1 (≈ 0.992 to 1.98 µM) | 16 to 32 (≈ 31.7 to 63.5 µM) | 1 to 2 (≈ 1.98 to 3.97 µM) | > 64 | 4 to 8 (≈ 7.93 to 15.9 µM) | > 64 | > 64 | > 64 | > 64 |
